# Several values for one entry are separate records, joined by “and”; a condition that tells them apart may be missing. Identical values can stand only once.
# Experiments:
# [1] = system: digestive tract nematodes (Haemonchus controtus, Ostertaqia ostertagi, hairworms, cooperids, etc.); experiment: Anthelmintic effect on bovine digestive tract nematodes (EPG); type: in vivo; conditions: cattle
# Protocol: The PF 1022 substance was evaluated for its anthelmintic effect on the so-called digestive tract nematodes parasitizing cattle by orally administering it to three head of cattle found to be infected with such nematodes (Haemonchus controtus, Ostertaqia ostertagi, hairworms, cooperids, etc.) by scatoscopy.
# The PF 1022 substance was administered either once at 5 mg/kg or for 2 days once daily at 12.5 mg/kg, in the form of a suspension in water, using a stomach catheter. Parasite eggs in feces (EPG) were counted daily for 3 days before administration and for 7 days following administration.
# [2] = Classification by basicity, acidity or neutrality; type: physicochemical
# [3] = system: bovine twisted stomach worms (Haemonchus contortus); experiment: In vitro test tube motility test on bovine twisted stomach worms; conditions: physiological salt solution, 39-40 C
# Protocol: The PF 1022 substance was evaluated for its anthelmintic activity by adding it to test tubes in which bovine twisted stomach worms (Haemonchus contortus) isolated from the bovine fourth stomach were swimming.
# A physiological salt solution was distributed into 4 test tubes and warmed to 39°-40° C. Three to five twisted stomachworms collected from the bovine fourth stomach were put into the medium in each test tube and allowed to swim therein. An appropriate amount of the PF 1022 substance was dissolved in a small amount of dimethyl sulfoxide and the solution was added dropwise to the medium and, after stirring for admixing, the behavior of each worm was observed. The amount of the PF 1022 substance was adjusted so that the final concentrations in the culture medium in three tubes amounted to 2 ppm, 8 ppm and 40 ppm, respectively. Dimethyl sulfoxide alone was added dropwise to the remaining test tube, which served as a control.
structure (smiles),measurement,setting,value
CC(C)C[C@H]1C(=O)O[C@H](Cc2ccccc2)C(=O)N(C)[C@@H](CC(C)C)C(=O)O[C@H](C)C(=O)N(C)[C@@H](CC(C)C)C(=O)O[C@H](Cc2ccccc2)C(=O)N(C)[C@@H](CC(C)C)C(=O)O[C@H](C)C(=O)N1C [PF 1022 substance],EPG relative to that found before administration,"[1]; 2 day administration at 12.5 mg/kg, day after the second day of administration",about half
same,EPG,"[1]; oral 5.0 mg/kg x 1, Day 0 (day of first administration)",34
same,EPG,"[1]; oral 5.0 mg/kg x 1, Day 1",44
same,EPG,"[1]; oral 5.0 mg/kg x 1, Day 2",61
same,EPG,"[1]; oral 5.0 mg/kg x 1, Day 3",18
same,EPG,"[1]; oral 5.0 mg/kg x 1, Day 4",30
same,EPG,"[1]; oral 5.0 mg/kg x 1, Day 5",6
same,EPG,"[1]; oral 5.0 mg/kg x 1, Day 6",27
same,EPG,"[1]; oral 5.0 mg/kg x 1, Day 7",7
same,EPG,"[1]; oral 5.0 mg/kg x 1, Day -1 (before administration)",34
same,EPG,"[1]; oral 5.0 mg/kg x 1, Day -2 (before administration)",32
same,EPG,"[1]; oral 5.0 mg/kg x 1, Day -3 (before administration)",30
same,EPG,"[1]; oral 12.5 mg/kg x 2, Day 0 (day of first administration), 12.5 mg/kg",112 and 64
same,EPG,"[1]; oral 12.5 mg/kg x 2, Day 2, 12.5 mg/kg",26 and 30
same,EPG,"[1]; oral 12.5 mg/kg x 2, Day 3, 12.5 mg/kg",34 and 41
same,EPG,"[1]; oral 12.5 mg/kg x 2, Day 4, 12.5 mg/kg",41 and 29
same,EPG,"[1]; oral 12.5 mg/kg x 2, Day 5, 12.5 mg/kg",41 and 34
same,EPG,"[1]; oral 12.5 mg/kg x 2, Day 6, 12.5 mg/kg",42 and 40
same,EPG,"[1]; oral 12.5 mg/kg x 2, Day 7, 12.5 mg/kg",49 and 36
same,EPG,"[1]; oral 12.5 mg/kg x 2, Day -1 (before administration), 12.5 mg/kg",109 and 67
same,EPG,"[1]; oral 12.5 mg/kg x 2, Day -2 (before administration), 12.5 mg/kg",109 and 58
same,EPG,"[1]; oral 12.5 mg/kg x 2, Day -3 (before administration), 12.5 mg/kg",91 and 58
same,"Classification by basicity, acidity or neutrality",[2],Neutral substance
same,time until the worms stopped moving,[3]; 2 ppm,25 min
same,time until the worms stopped moving,[3]; 8 ppm,15 min
same,time until the worms stopped moving,[3]; 40 ppm,10 min

# Source: patent US5116815A, “PF 1022 substance, method of treating helminthic parasitic infection and anthelmintic composition” (Meiji Seika Kaisha Ltd., priority 1989, dated 1992)
